The record followed here is US12251366B1, “Sulforaphane-cysteine for wound healing in diabetic subjects” (KUWAIT UNIVERSITY, priority 2024, dated 2025).

For test [1], the system named is NQO1. As to the kind of experiment: Tissue mRNA expression of NQO1 after SFN-Cys diet. In kind it is in vivo. To be noted: heart, kidney, liver and skin; SFN-Cys diet 1.5-2.5 μmol/mouse, 21 days. On the procedure: (§1) Testing the pharmacodynamic and toxicodynamic properties of SFN-Cys dictated the mixing SFN-Cys with a powdered diet. The estimated dose delivered by this diet was 1.5-2.5 μmol/mouse (n=4). The SFN-Cys diet was stored at 4° C. and the feeders were refilled daily for the duration of the study (21 days). Corresponding animals received food without the drug.
(§2) For dietary treatment with SFN-Cys, the SFN-Cys was mixed with a powdered diet (7.5 mg of SFN-Cys per kg of food). The estimated dose delivered by this diet was about 1.0-1.5 mg/kg. The diet was stored at 4° C. and the feeders were refilled daily. Control animals received diet alone. Body weights were recorded twice a week and at the termination of the study, blood was drawn in EDTA-containing tubes, plasma was collected by centrifugation and stored at −80° C. until analysis.
(§3) Total RNA from cells or frozen sponge implants was extracted using the Trizol reagent (Invitrogen), and the RNA integrity was verified by agarose gel electrophoresis. […] The amplified sequences were assessed using the ABI 7500 Prism Sequence Detection system machine. The results were expressed as mRNA levels normalized to 18S or GAPDH in each sample.

The nature of test [2]: Muscle weight in diabetic mice (sarcopenia). In kind it is in vivo. The text has this: (§4) Therapeutic rational was considered for SFN-Cys effectiveness in the following pathological conditions: Sarcopenia-SFN-Cys increased muscle weight in diabetic mice, see FIGS. 4A and 4B; Cardiac fibrosis-SFN-Cys inhibits transforming growth factor beta (TGF-β) expression, see FIG. 4C; Erectile dysfunction-SFN-Cys increased endothelial nitric oxide activity and expression in corpus cavernosum.

Test [3] has as its system NQO1. As to the kind of experiment: mRNA expression of Nrf2 target gene NQO1 in fibroblasts. In kind it is cell-based, rat. To be noted: diabetic fibroblasts, 1.5 μM. Here is the method:
To better characterize how SFN-Cys impacts cellular antioxidant levels, the ability of SFN-Cys to regulate the transcription factor nuclear factor erythroid 2-related factor 2 (Nrf2) was assessed, which is a master regulator of the antioxidative stress response that induces the expression of antioxidant proteins such as heme oxygenase (HO) and NAD(P)H dehydrogenase (quinine; NQO1) and key enzymes in the glutathione system. In this context, Nrf2 transcriptional activity was first measured using a vector encoding luciferase driven by the NQO1 promoter. […] Administration of SNF-Cyst at the above indicated concentration (1.5 μM, the lowest effective concentration) ameliorated diabetes-induced suppression of the Nrf2 activity and Nrf2-target genes including HO and NQO1 (FIG. 2A-D).
as §3

The nature of test [4]: Pain threshold in diabetic rats (diabetic neuropathy). The test is classed as in vivo. Particulars: 5 μmol/rat.
From the text: as §4

In test [5] the test system is TNF-α. Briefly: Real-time PCR, LPS-induced TNF-α mRNA in peritoneal macrophages. In kind it is cell-based, mouse. To be noted: LPS 100 ng/mL, 1.5 umol/L, RT-PCR. On the procedure:
(§5) Additional tests were conducted to determine whether SFN-Cys also suppresses TNF-α and IL-6 expression at the mRNA level.
(§6) Thioglycollate-elicited mouse peritoneal macrophages were prepared from C57BL (8-10 weeks old) and cultured in RPMI 1640 with 10% (v/v) FCS Bone marrow-derived macrophages were generated in RPMI medium containing M-CSF (10 ng/mL) according to previously published procedure. For cytokine ELISA assay, cells were seeded at 5×10^5 in 12-well plates, whereas for mRNA expression, the cells were seeded at […]. LPS and used at a dose of 100 ng/mL. Similarly. SFN-Cys was used at a concentration of 1.5 umol/L.
(§7) Total RNA from cells or frozen sponge implants was extracted using the Trizol reagent (Invitrogen), and the RNA integrity was verified by agarose gel electrophoresis. Approximately 1 μg of RNA was reverse transcribed (Superscript II Reverse Transcriptase Kit, Invitrogen) and amplified using the TaqMan Assay on Demand (Applied Biosystems) in a 25 μL reaction volume containing two unlabeled primers, a 6-carboxyfluorescien-labeled TaqMan MGB probe and the master mix. The amplified sequences were assessed using the ABI 7500 Prism Sequence Detection system machine. The results were expressed as mRNA levels normalized to 18S or GAPDH in each sample.

Test [6] concerns IL-6. As to the kind of experiment: Real-time PCR, LPS-induced IL-6 mRNA in peritoneal macrophages. The test is classed as cell-based, mouse. Particulars: LPS 100 ng/mL, 1.5 umol/L, RT-PCR. On the procedure:
as §5, §6, §7

Test [7] concerns Vimentin-TGF-β-Slug signaling pathway. Briefly: Vimentin-TGF-β-Slug signaling in diabetic wound biopsies. The test is classed as in vivo, rat. To be noted: semi-chronic administration.
From the text: Although the molecular mechanism by which SFN-Cyst enhanced wound healing potential was not fully explored in this study, it is possible to involve the Vimentin-TGF-β-Slug signaling pathway. Vimentin is an intermediate filament protein that participates in several cellular processes essential for wound healing, including cell proliferation, adhesion, migration and cytoskeletal rearrangement. Moreover, vimentin also amplifies epithelial-mesenchymal-transition via enhancing TGF-β-Slug signaling. […] A similar reduction in TGF-β-Slug signaling level was also evident in this disease state (FIG. 3D).
as §7

Test [8] relates to heme oxygenase. Briefly: Tissue mRNA expression of heme oxygenase after SFN-Cys diet. In kind it is in vivo. To be noted: heart, kidney, liver and skin; SFN-Cys diet 1.5-2.5 μmol/mouse, 21 days. Here is the method:
as §1, §2, §3

Molecules are shown by their SMILES.

For `C[S+]([O-])CCCCNC(=S)SCC(N)C(=O)O` (centres unmarked) [SFN-Cys, Sulforaphane-Cysteine], in test [1], the “mRNA expression of NQO1 relative to control” value is listed as “about 3 folds”. Besides, the muscle weight entry in test [2] is “increased”. In test [3], the “mRNA expression of Nrf2 target gene NQO1” value was “ameliorated”. In test [4], the pain threshold result is “elevated”. For the same compound, the “LPS-induced TNF-α mRNA up-regulation” value in test [5] was “significantly inhibited”. The “LPS-induced IL-6 mRNA up-regulation” value in test [6] was “significantly inhibited”. The “deficit in Vimentin-TGF-β-Slug signaling” value in test [7] is reported as “ameliorated”. Also, the “mRNA expression of heme oxygenase relative to control” value in test [8] is “about 3 folds”.
